In US20220169628A1 (University of Florida Research Foundation, Incorporated, priority 2019, published 2022):

How the values were obtained:
[1] = tested on: MOLT-4 cells; assay: Cell viability assay, MTS, 48 h, MOLT-4; format: cell-based; details: Homo sapiens, MOLT-4, 48 h, 48 hours, read-out: IC50 (48 hours) MOLT-4
Protocol: (§1) Acute lymphoblastic leukemia cells (MOLT-4 and RS4; 11) or small cell lung cancer (NCI-H146 or simply H146) were incubated with increasing concentrations of Bcl-xL degraders for 48 h. Cell viability was measured by tetrazolium-based MTS assay.

[2] = tested on: RS4;11 cells; assay: Cell viability assay, MTS, 48 h, RS4;11; format: cell-based; details: Homo sapiens, RS4-11, 48 h, 48 hours, read-out: IC50 (48 hours) RS4;11
Protocol: as §1

Row | IC50 [1] [nM] | IC50 [2] [nM] | Compound
1 | 50 to 150 | < 50 | Cc1ncsc1-c1ccc([C@H](C)NC(=O)[C@@H]2C[C@@H](O)CN2C(=O)[C@@H](NC(=O)CCCCCCC(=O)NC2CCN(CC3(C)CCC(c4ccc(Cl)cc4)=C(CN4CCN(c5ccc(C(=O)NS(=O)(=O)c6ccc(N[C@H](CCN7CCOCC7)CSc7ccccc7)c(S(=O)(=O)C(F)(F)F)c6)cc5)CC4)C3)CC2)C(C)(C)C)cc1 (stereo partly drawn) [degrader #38, N1-(1-((4′-chloro-4-methyl-6-((4-(4-(((4-(((R)-4-morpholino-1-(phenylthio)butan-2-yl)amino)-3-((trifluoromethyl)sulfonyl)phenyl)sulfonyl)carbamoyl)phenyl)piperazin-1-yl)methyl)-2,3,4,5-tetrahydro-[1,1′-biphenyl]-4-yl)methyl)piperidin-4-yl)-N8-((S)-1-((2S,4R)-4-hydroxy-2-(((S)-1-(4-(4-methylthiazol-5-yl)phenyl)ethyl)carbamoyl)pyrrolidin-1-yl)-3,3-dimethyl-1-oxobutan-2-yl)octanediamide]
2 | 50 to 150 | < 50 | Cc1ncsc1-c1ccc([C@H](C)NC(=O)[C@@H]2C[C@@H](O)CN2C(=O)[C@@H](NC(=O)CCCCCCC(=O)N2CC3(CCN(CC4(C)CCC(c5ccc(Cl)cc5)=C(CN5CCN(c6ccc(C(=O)NS(=O)(=O)c7ccc(N[C@H](CCN8CCOCC8)CSc8ccccc8)c(S(=O)(=O)C(F)(F)F)c7)cc6)CC5)C4)CC3)C2)C(C)(C)C)cc1 (stereo partly drawn) [degrader #32, (2S,4R)-1-((2S)-2-(8-(7-((4′-chloro-4-methyl-6-((4-(4-(((4-(((R)-4-morpholino-1-(phenylthio)butan-2-yl)amino)-3-((trifluoromethyl)sulfonyl)phenyl)sulfonyl)carbamoyl)phenyl)piperazin-1-yl)methyl)-2,3,4,5-tetrahydro-[1,1′-biphenyl]-4-yl)methyl)-2,7-diazaspiro[3.5]nonan-2-yl)-8-oxooctanamido)-3,3-dimethylbutanoyl)-4-hydroxy-N—((S)-1-(4-(4-methylthiazol-5-yl)phenyl)ethyl)pyrrolidine-2-carboxamide]
3 | 50 to 150 | 50 to 150 | CC1(CNC(=O)COCCNc2cccc3c2C(=O)N(C2CCC(=O)NC2=O)C3=O)CCC(c2ccc(Cl)cc2)=C(CN2CCN(c3ccc(C(=O)NS(=O)(=O)c4ccc(N[C@H](CCN5CCOCC5)CSc5ccccc5)c(S(=O)(=O)C(F)(F)F)c4)cc3)CC2)C1 (stereo partly drawn) [compound 76, 4-(4-((4′-chloro-4-((2-(2-((2-(2,6-dioxopiperidin-3-yl)-1,3-dioxoisoindolin-4-yl)amino)ethoxy)acetamido)methyl)-4-methyl-3,4,5,6-tetrahydro-[1,1′-biphenyl]-2-yl)methyl)piperazin-1-yl)-N-((4-(((R)-4-morpholino-1-(phenylthio)butan-2-yl)amino)-3-((trifluoromethyl)sulfonyl)phenyl)sulfonyl)benzamide]
4 | 150 to 500 | > 500 | Cc1ncsc1-c1ccc([C@@H](C)NC(=O)[C@@H]2C[C@@H](O)CN2C(=O)[C@@H](NC(=O)CCCCCCCCCN2CCC(c3ccc(Cl)cc3)=C(CN3CCN(c4ccc(C(=O)NS(=O)(=O)c5ccc(N[C@H](CCN6CCOCC6)CSc6ccccc6)c(S(=O)(=O)C(F)(F)F)c5)cc4)CC3)C2)C(C)(C)C)cc1 [compound 88, (2S,4R)-1-((S)-2-(10-(4-(4-chlorophenyl)-5-((4-(4-(((4-(((R)-4-morpholino-1-(phenylthio)butan-2-yl)amino)-3-((trifluoromethyl)sulfonyl)phenyl)sulfonyl)carbamoyl)phenyl)piperazin-1-yl)methyl)-3,6-dihydropyridin-1(2H)-yl)decanamido)-3,3-dimethylbutanoyl)-4-hydroxy-N—((R)-1-(4-(4-methylthiazol-5-yl)phenyl)ethyl)pyrrolidine-2-carboxamide]
